Measured values as given in patent publication US8889711B2, “Pyrazolopyridine derivatives as anticancer agent” (Pierre Fabre Medicament, priority 2009, dated 2014).
pIC50: −log10 of the molar value.

tested on: karpas 299 cells; assay: Measurement of inhibition of cell proliferation (Karpas), ATPlite; format: cell-based; settings: 72 hours
Outline: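 Karpas 299 cells seeded at 300 000 cells/ml, treated on Day 1 and incubated at 37° C under 5% CO2 for 72 h. Viability measured on Day 4 by ATPlite luminescence of ATP from viable cells. IC50 derived by non-linear sigmoid dose-response regression with variable Hill slope.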

pIC50 | SMILES
5.00 to 6.00 | N#Cc1c(-c2cccc(O)c2)nc2[nH]nc(-c3cccs3)c2c1-c1ccc(N2CCNCC2)cc1 [Compound 247]

same assay, conditions: Homo sapiens, KARPAS-299, 72 h

SMILES | pIC50
N#Cc1c(-c2ccc(O)cc2F)nc2[nH]nc(-c3ccc(-c4ccccc4)cc3)c2c1-c1ccc(N2CCNCC2)cc1 [Compound 236] | 6.00 to 7.00
N#Cc1c(-c2c(F)ccc(F)c2F)nc2[nH]nc(-c3ccco3)c2c1-c1ccc(N2CCOCC2)o1 [Compound 255] | 5.00 to 6.00
N#Cc1c(-c2ccc(O)cc2Cl)nc2[nH]nc(-c3ccc(N4CCOCC4)cc3)c2c1-c1ccc(N2CCNCC2)cc1 [Compound 256] | 5.00 to 6.00
Cc1n[nH]c2nc(-c3ccc(O)cc3F)c(C#N)cc12 [Compound 260] | 5.00 to 6.00
Cc1n[nH]c2nc(-c3ccc(O)cc3F)c(C#N)c(-c3ccc(-c4ccc(S(N)(=O)=O)cc4)o3)c12 [Compound 270] | < 5.00
N#Cc1c(-c2ccc(O)cc2F)nc2[nH]nc(N)c2c1-c1ccc(-c2ccc(S(N)(=O)=O)cc2)o1 [Compound 271] | < 5.00
Cc1n[nH]c2nc(-c3ccc(O)cc3)c(C#N)c(-c3ccc(-c4ccc(N)cc4)o3)c12 [Compound 273] | < 5.00
CN(C)CC#Cc1ccc(-c2c(C#N)c(-c3ccc(O)cc3)nc3[nH]ncc23)o1 [Compound 274] | 5.00 to 6.00
Cc1n[nH]c2nc(-c3ccc(O)cc3)c(C#N)c(-c3ccc(-c4ccc(S(N)(=O)=O)cc4)o3)c12 [Compound 275] | < 5.00
N#Cc1c(-c2cscn2)nc2[nH]nc(-c3cccs3)c2c1-c1ccc(N2CCNCC2)cc1 [Compound 276] | 5.00 to 6.00

Results, then the molecule that gave them:

pIC50 | SMILES
5.00 to 6.00 | Cc1n[nH]c2nc(-c3cc4cc[nH]c4cc3F)c(C#N)c(-c3ccc(N4CCNCC4)cc3)c12 [Compound 234]
5.00 to 6.00 | N#Cc1c(-c2ccc(O)cc2F)nc2[nH]nc(-c3ccc([N+](=O)[O-])cc3)c2c1-c1ccc(N2CCNCC2)cc1 [Compound 235]
5.00 to 6.00 | Cc1n[nH]c2nc(-c3ccc(O)cc3F)c(S(C)(=O)=O)c(-c3ccc(N4CCNCC4)cc3)c12 [Compound 238]
6.00 to 7.00 | Cc1n[nH]c2nc(-c3ccc(OC(=O)c4ccccc4)cc3F)c(C#N)c(-c3ccc(N4CCNCC4)cc3)c12 [Compound 239]
5.00 to 6.00 | N#Cc1c(-c2c(F)ccc(F)c2F)nc2[nH]nc(-c3ccco3)c2c1-c1ccc(N2CCNCC2)cc1 [Compound 242]
6.00 to 7.00 | N#Cc1c(-c2ccc(O)cc2F)nc2[nH]nc(-c3ccc(C(F)(F)F)cc3)c2c1-c1ccc(N2CCNCC2)cc1 [Compound 244]
5.00 to 6.00 | CCOC(=O)c1c(-c2c(F)ccc(F)c2F)nc2[nH]nc(-c3cccs3)c2c1-c1ccc(N2CCNCC2)cc1 [Compound 245]
5.00 to 6.00 | Cc1c(C#N)c(-c2c(F)ccc(F)c2F)nc2[nH]nc(-c3ccc(N4CCNCC4)cc3)c12 [Compound 248]
6.00 to 7.00 | Cc1cc(-c2nc3[nH]nc(-c4ccco4)c3c(-c3ccc(N4CCNCC4)cc3)c2C#N)ccc1O [Compound 251]
5.00 to 6.00 | CCOC(=O)c1c(-c2c(F)ccc(F)c2F)nc2[nH]nc(C)c2c1-c1ccc(N2CCNCC2)cc1 [Compound 252]
5.00 to 6.00 | Cc1n[nH]c2nc(-c3c(F)ccc(F)c3F)c(C#N)c(-c3ccc(N4CCC(N)CC4)o3)c12 [Compound 253]
5.00 to 6.00 | Cc1n[nH]c2nc(-c3ccc(O)cc3Cl)c(C#N)c(-c3ccc(N4CCNCC4)cc3)c12 [Compound 254]
5.00 to 6.00 | N#Cc1c(-c2ccoc2)nc2[nH]nc(-c3ccco3)c2c1-c1ccc(N2CCNCC2)cc1 [Compound 272]

target: ALK kinase (Homo sapiens, UniProt Q9UM73); assay: Test to measure ALK kinase inhibition (GST-PLCγ1 substrate, anti-phosphotyrosine ELISA, luminescence); format: biochemical; settings: ALK kinase 180 ng/ml, 250 μM ATP, 30 minutes at 30° C.
Outline: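 GST-PLCγ1 substrate-coated plate; ALK at 180 ng/ml in Tris pH 7.5 buffer with MgCl2, DTT, β-glycerophosphate, orthovanadate and 250 μM ATP, 30 min at 30 °C, inhibitor typically 30 μM to 10 nM. Phosphotyrosine detected with HRP anti-phosphotyrosine antibody, luminescence read-out.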

Chain of ALK kinase (Q9UM73 19-1620): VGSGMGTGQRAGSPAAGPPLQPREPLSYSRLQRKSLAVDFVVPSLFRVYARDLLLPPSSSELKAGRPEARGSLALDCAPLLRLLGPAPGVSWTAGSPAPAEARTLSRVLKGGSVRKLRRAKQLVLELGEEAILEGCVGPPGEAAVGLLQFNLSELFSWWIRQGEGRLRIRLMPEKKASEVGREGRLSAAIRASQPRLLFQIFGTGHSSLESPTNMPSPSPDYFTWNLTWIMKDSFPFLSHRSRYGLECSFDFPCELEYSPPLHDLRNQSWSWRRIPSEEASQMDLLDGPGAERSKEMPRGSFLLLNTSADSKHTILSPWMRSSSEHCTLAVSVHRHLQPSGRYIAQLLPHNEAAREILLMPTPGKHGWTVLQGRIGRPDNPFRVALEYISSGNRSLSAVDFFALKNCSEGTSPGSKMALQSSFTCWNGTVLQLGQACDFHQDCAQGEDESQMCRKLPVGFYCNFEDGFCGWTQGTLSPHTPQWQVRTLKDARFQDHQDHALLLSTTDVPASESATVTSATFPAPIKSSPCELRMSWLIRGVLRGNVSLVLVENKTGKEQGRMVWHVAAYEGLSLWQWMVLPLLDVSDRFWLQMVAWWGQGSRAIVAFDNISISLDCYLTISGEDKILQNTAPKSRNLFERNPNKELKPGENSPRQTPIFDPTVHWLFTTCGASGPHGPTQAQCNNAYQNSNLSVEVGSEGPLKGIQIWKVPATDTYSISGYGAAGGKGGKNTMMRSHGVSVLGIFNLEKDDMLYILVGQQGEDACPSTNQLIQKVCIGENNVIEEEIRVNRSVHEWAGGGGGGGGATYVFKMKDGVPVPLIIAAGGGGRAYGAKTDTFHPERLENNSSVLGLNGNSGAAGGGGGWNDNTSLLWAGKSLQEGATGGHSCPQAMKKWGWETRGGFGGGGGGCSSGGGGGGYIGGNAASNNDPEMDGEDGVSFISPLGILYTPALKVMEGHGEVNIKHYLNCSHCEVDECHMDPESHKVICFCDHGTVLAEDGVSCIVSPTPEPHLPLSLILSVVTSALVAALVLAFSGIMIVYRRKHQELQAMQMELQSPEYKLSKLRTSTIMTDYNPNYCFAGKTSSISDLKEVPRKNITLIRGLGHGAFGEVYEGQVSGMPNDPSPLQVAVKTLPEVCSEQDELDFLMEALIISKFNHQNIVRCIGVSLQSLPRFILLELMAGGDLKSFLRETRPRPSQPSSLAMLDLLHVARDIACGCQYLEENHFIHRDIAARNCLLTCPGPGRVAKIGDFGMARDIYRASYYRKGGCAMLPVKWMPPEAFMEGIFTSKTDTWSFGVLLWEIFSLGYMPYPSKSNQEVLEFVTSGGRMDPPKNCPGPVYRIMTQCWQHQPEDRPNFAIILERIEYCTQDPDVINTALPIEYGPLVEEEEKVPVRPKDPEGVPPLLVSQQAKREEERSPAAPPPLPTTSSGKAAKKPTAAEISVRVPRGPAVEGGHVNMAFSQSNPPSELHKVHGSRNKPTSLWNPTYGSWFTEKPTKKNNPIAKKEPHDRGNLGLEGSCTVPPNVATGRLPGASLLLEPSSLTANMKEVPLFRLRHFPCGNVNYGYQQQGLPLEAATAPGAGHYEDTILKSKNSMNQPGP

SMILES | pIC50
N#Cc1c(-c2ccc(O)cc2F)nc2[nH]nc(-c3ccc(-c4ccccc4)cc3)c2c1-c1ccc(N2CCNCC2)cc1 [Compound 236] | > 7.00
N#Cc1c(-c2c(F)ccc(F)c2F)nc2[nH]nc(-c3ccco3)c2c1-c1ccc(N2CCOCC2)o1 [Compound 255] | 5.00 to 6.00
N#Cc1c(-c2ccc(O)cc2Cl)nc2[nH]nc(-c3ccc(N4CCOCC4)cc3)c2c1-c1ccc(N2CCNCC2)cc1 [Compound 256] | > 7.00
Cc1n[nH]c2nc(-c3ccc(O)cc3F)c(C#N)cc12 [Compound 260] | 6.00 to 7.00
Cc1n[nH]c2nc(-c3ccc(O)cc3F)c(C#N)c(-c3ccc(-c4ccc(S(N)(=O)=O)cc4)o3)c12 [Compound 270] | 6.00 to 7.00
N#Cc1c(-c2ccc(O)cc2F)nc2[nH]nc(N)c2c1-c1ccc(-c2ccc(S(N)(=O)=O)cc2)o1 [Compound 271] | 6.00 to 7.00
Cc1n[nH]c2nc(-c3ccc(O)cc3)c(C#N)c(-c3ccc(-c4ccc(N)cc4)o3)c12 [Compound 273] | 6.00 to 7.00
CN(C)CC#Cc1ccc(-c2c(C#N)c(-c3ccc(O)cc3)nc3[nH]ncc23)o1 [Compound 274] | 5.00 to 6.00
Cc1n[nH]c2nc(-c3ccc(O)cc3)c(C#N)c(-c3ccc(-c4ccc(S(N)(=O)=O)cc4)o3)c12 [Compound 275] | 6.00 to 7.00
N#Cc1c(-c2cscn2)nc2[nH]nc(-c3cccs3)c2c1-c1ccc(N2CCNCC2)cc1 [Compound 276] | < 5.00

The remaining lines, values ahead:

pIC50 | SMILES
6.00 to 7.00 | Cc1n[nH]c2nc(-c3cc4cc[nH]c4cc3F)c(C#N)c(-c3ccc(N4CCNCC4)cc3)c12 [Compound 234]
6.00 to 7.00 | N#Cc1c(-c2ccc(O)cc2F)nc2[nH]nc(-c3ccc([N+](=O)[O-])cc3)c2c1-c1ccc(N2CCNCC2)cc1 [Compound 235]
6.00 to 7.00 | Cc1n[nH]c2nc(-c3ccc(O)cc3F)c(S(C)(=O)=O)c(-c3ccc(N4CCNCC4)cc3)c12 [Compound 238]
6.00 to 7.00 | Cc1n[nH]c2nc(-c3ccc(OC(=O)c4ccccc4)cc3F)c(C#N)c(-c3ccc(N4CCNCC4)cc3)c12 [Compound 239]
6.00 to 7.00 | N#Cc1c(-c2c(F)ccc(F)c2F)nc2[nH]nc(-c3ccco3)c2c1-c1ccc(N2CCNCC2)cc1 [Compound 242]
> 7.00 | N#Cc1c(-c2ccc(O)cc2F)nc2[nH]nc(-c3ccc(C(F)(F)F)cc3)c2c1-c1ccc(N2CCNCC2)cc1 [Compound 244]
6.00 to 7.00 | CCOC(=O)c1c(-c2c(F)ccc(F)c2F)nc2[nH]nc(-c3cccs3)c2c1-c1ccc(N2CCNCC2)cc1 [Compound 245]
6.00 to 7.00 | N#Cc1c(-c2cccc(O)c2)nc2[nH]nc(-c3cccs3)c2c1-c1ccc(N2CCNCC2)cc1 [Compound 247]
5.00 to 6.00 | Cc1c(C#N)c(-c2c(F)ccc(F)c2F)nc2[nH]nc(-c3ccc(N4CCNCC4)cc3)c12 [Compound 248]
> 7.00 | Cc1cc(-c2nc3[nH]nc(-c4ccco4)c3c(-c3ccc(N4CCNCC4)cc3)c2C#N)ccc1O [Compound 251]
6.00 to 7.00 | CCOC(=O)c1c(-c2c(F)ccc(F)c2F)nc2[nH]nc(C)c2c1-c1ccc(N2CCNCC2)cc1 [Compound 252]
6.00 to 7.00 | Cc1n[nH]c2nc(-c3c(F)ccc(F)c3F)c(C#N)c(-c3ccc(N4CCC(N)CC4)o3)c12 [Compound 253]
6.00 to 7.00 | Cc1n[nH]c2nc(-c3ccc(O)cc3Cl)c(C#N)c(-c3ccc(N4CCNCC4)cc3)c12 [Compound 254]
5.00 to 6.00 | N#Cc1c(-c2ccoc2)nc2[nH]nc(-c3ccco3)c2c1-c1ccc(N2CCNCC2)cc1 [Compound 272]
